The results in this text go back to patent US10111955B2, “PEG derivative” (priority 2014, dated 2018).

The test system of one experiment is pancreatic cancer cells. The experiment is described as follows: Test Example 1: pancreatic cancer cells transplanted into BALB/c nude mouse, tumor volume and body weight. In kind it is in vivo. Particulars: 4.5 mg/kg/day × 14 days, subcutaneous continuous infusion. As for the experimental part:
5×10^6 cells of pancreatic cancer cells were transplanted into the right abdomen of a BALB/c nude mouse, and after 7 days, at the time point at which the average tumor size reached 100 mm^3, drug administration was initiated. Up to 29 days from the time of drug administration, the body weight of the mouse and the tumor volume were measured. The results are presented in FIG. 11, FIG. 12, and Table 1. Subcutaneous continuous infusion of 1-(2′-cyano-2′-deoxy-β-D-arabinofuranosyl)cytosine hydrochloride (DFP-10917) at a dose of 4.5 mg/kg/day was continuously performed for two weeks using a micropump embedded in the body of the mouse. In contrast, Compound (1a) was intravenously administered once a week at a dose of 100 mg/kg, 200 mg/kg, or 300 mg/kg. The dosage of this Compound (1a) is administration once a week at a dose of 2.4 mg/kg, 4.8 mg/kg, or 7.2 mg/kg, as converted to […]. For the control, a buffer solution (pH=5.0) of sodium acetate was administered.

The test system of experiment [1] is Human lung cancer cell A549 cells. The experiment is described as follows: Test Example 5 (second): human lung cancer cell A549 transplanted into nude mouse, Tables 5 and 6. The experiment is classed as in vivo, BALB/c nude mouse. The note with it: once a day, for 2 weeks. The text has this: Human lung cancer cell A549 cells were transplanted into the right abdomen of a BALB/c nude mouse, and after 11 days, at the time point at which the average tumor size reached 200 mm^3, drug administration was initiated.

The subject of experiment [2] is human pancreatic cancer cell Panc-1. The experiment is described as follows: Test Example 5: human pancreatic cancer cell Panc-1 transplanted into nude mouse. The experiment is classed as in vivo, BALB/c nude mouse. Particulars: 100 mg/kg iv, repeated four times, total dosage 400 mg/kg. As for the experimental part: (§1) Compound (1a) was intravenously administered once a week at a dose of 200 mg/kg (the amount as converted to DFP-10917 was 4.8 mg/kg), and pemetrexed, which is a standard drug for lung cancer, was intraperitoneally administered once a week at a dose of 300 mg/kg. For the control, physiological saline was intravenously administered once a week. The observation was made for two weeks (administered two times in total). 5×10^6 cells of human pancreatic cancer cell Panc-1 were transplanted into the right abdomen of a BALB/c nude mouse, and drugs were administered in the same manner as in Test Example 3. Compound (1g) was intravenously administered once a week, two times in total, or twice a week. Gemcitabine was administered such that 100 mg/kg was administered in four divided portions over 3 days, and this intravenous administration was repeated four times in total. For the control, physiological saline was administered once a week.

In experiment [3] the test system is human breast cancer cell BT474. Put plainly: Test Example 4: human breast cancer cell BT474 transplanted into nude mouse. In kind it is in vivo, BALB/c nude mouse. Particulars: 100 mg/kg once a week, total dosage 200 mg/kg. As for the experimental part: as §1, with “1×10^7” for “5×10^6”, “breast” for “pancreatic”, “BT474” for “Panc-1”, “3. DFP-10917 and” for “3.”, “(1a) were” for “(1g) was”, “two” for “two times in total, or twice a week. Gemcitabine was administered such that 100 mg/kg was administered in four divided portions over 3 days, and this intravenous administration was repeated four”

The test system of experiment [4] is human breast cancer cell BT474. Put plainly: Test Example 6: human breast cancer cell BT474 transplanted into nude mouse. In kind it is in vivo, BALB/c nude mouse. The note with it: 5 mg/kg iv, once a week, for 2 weeks. As for the experimental part:
1×10^7 cells of human breast cancer cell BT474 were transplanted into the right abdomen of a BALB/c nude mouse, and when the tumor volume reached 100 to 150 mm^3, drugs were administered. The administration was implemented once a week for two weeks.

The subject of experiment [5] is human lung cancer cell A549. The experiment is described as follows: Test Example 3: human lung cancer cell A549 transplanted into nude mouse. The experiment is classed as in vivo, BALB/c nude mouse. The note with it: 300 mg/kg intraperitoneally once a week, total dosage 600 mg/kg, two weeks. As for the experimental part:
5×10^6 cells of human lung cancer cell A549 were transplanted into the right abdomen of a BALE/c nude mouse, and after 14 days, at the time at which the average tumor size reached 127 mm^3, drug administration was initiated. Compound (1a) was intravenously administered once a week at a dose of 200 mg/kg (the amount as converted to DFP-10917 was 4.8 mg/kg), and pemetrexed, which is a standard drug for lung cancer, was intraperitoneally administered once a week at a dose of 300 mg/kg. For the control, physiological saline was intravenously administered once a week. The observation was made for two weeks (administered two times in total).

Consider `Cl.N#C[C@H]1[C@H](O)[C@@H](CO)O[C@H]1n1ccc(N)nc1=O` [DFP-10917, 1-(2′-cyano-2′-deoxy-β-D-arabinofuranosyl)cytosine hydrochloride], for which, in the experiment with pancreatic cancer cells, the “TGI (D 29, %) tumor growth inhibition” value turned out to be 37.7%. Moreover, the “Tumor Volume (D 29, mm^3)” value in the experiment on pancreatic cancer cells (Mean ± SEM) amounted to 917 ± 72 mm^3.

With `CCNCCNC(=O)c1c(C)[nH]c(/C=C2\C(=O)Nc3ccc(F)cc32)c1C` [De-ethylated form of sunitinib], in experiment [1] (50 mg/kg po), the “TGI (D 29, %)” value worked out at 43.1% and the “Tumor Volume (D 29, mm^3)” value came to 687 ± 103 mm^3.

Regarding `Nc1ccn([C@@H]2O[C@H](CO)[C@@H](O)C2(F)F)c(=O)n1` [Gemcitabine, gemcitabine], the “TGI (tumor growth inhibition)” value turned out to be 63.6 in experiment [2] and 43 in experiment [3]. The “Tumor Volume” value in experiment [2] (in mm³ (unit assumed)) is reported as 370 ± 37; in experiment [3], 525 ± 95.

Take `CS(=O)(=O)CCNCc1ccc(-c2ccc3ncnc(Nc4ccc(OCc5cccc(F)c5)c(Cl)c4)c3c2)o1` [Lapatinib, lapatinib]: in experiment [1] (100 mg/kg po), the “TGI (D 29, %)” value came to 25.6% and the “Tumor Volume (D 29, mm^3)” value is on record as 898 ± 120 mm^3.

Regarding `CC(=O)O[C@H]1C(=O)[C@@]2(C)[C@H]([C@H](OC(=O)c3ccccc3)[C@]3(O)C[C@H](OC(=O)[C@H](O)[C@@H](NC(=O)c4ccccc4)c4ccccc4)C(C)=C1C3(C)C)[C@]1(OC(C)=O)CO[C@@H]1C[C@@H]2O` [Paclitaxel, paclitaxel], in experiment [4], the “TGI (D 23, %) tumor growth inhibition ratio” value is reported as 29.8% and the “Tumor Volume (D 23, mm^3)” value worked out at 275 ± 39 mm^3.

Regarding `Nc1nc2[nH]cc(CCc3ccc(C(=O)N[C@@H](CCC(=O)O)C(=O)O)cc3)c2c(=O)[nH]1` [Pemetrexed, pemetrexed], the “TGI (tumor growth inhibition)” value in experiment [5] is recorded as 30. In addition, in experiment [5] (in mm³), the “Tumor Volume” value is listed as 818 ± 44.
